Reference: patent publication US9597407B2, “Targeted antimicrobial moieties” (C3 Jian, Inc., priority 2009, dated 2017)
Ends that are not written are not given here.

Tested on: microorganisms
Test: Morphology, biofilm and growth disruption by peptides (Table 5)
Format: cell-based
Design: key: A: Peptide aggregates; B: Less hyphal formation; Clumps; Diffuse clumps and small polyps; F: Diffuse growth; H: Thin; I: Growth inhibition; Microcolony formation; Rippled; Small polyps; Thick; W: Halo formation on top, microlonies on bottom
Text: In certain embodiments peptides that induce alterations in phenotype or other biological activities can also be used as antimicrobial effector moieties.

PF-565 (RAEAEAQRQAEADAKRKAEEAARL; Peptide with targeting and/or antimicrobial activity)
Organism, effect (morphology, biofilm and growth disruption) (B. subtilis): B. subtilis (D) | Organism, effect (morphology, biofilm and growth disruption) (MRSA): MRSA (C)

PF-001 (chain 1 MNNWIIVAQLSVTVINEIIDIMKEKQKGGK; chain 2 MNNWIIVAQLSVTVINEIIDIMKEKQKGGK; Peptide with targeting and/or antimicrobial activity)
Organism, effect (C. jeikeium): C. jeikeium (D) | Organism, effect (M. luteus): M. luteus (C) | Organism, effect (MRSA): MRSA (R) | Organism, effect (S. epidermidis): S. epidermidis (C)

PF-534 (KYFHLFYHNIIHYSKQHLSLKVDFKN-NH2)
Organism, effect (morphology, biofilm and growth disruption) (E. coli): E. coli (R) | Organism, effect (morphology, biofilm and growth disruption) (E. faecalis): E. faecalis (C) | Organism, effect (morphology, biofilm and growth disruption) (MRSA): MRSA (C) | Organism, effect (morphology, biofilm and growth disruption) (S. epidermidis): S. epidermidis (C) | Organism, effect (morphology, biofilm and growth disruption) (S. pneumoniae): S. pneumoniae (R)

PF-630 (chain 1 IPATPIIHS; chain 2 IPATPIIHS; Peptide with targeting and/or antimicrobial activity)
Organism, effect (morphology, biofilm and growth disruption) (MRSA): MRSA (M)

GIVLIGLKLIPLLANVLR [PF-322]
Organism, effect (B. subtilis): B. subtilis (H) | Organism, effect (S. epidermidis): S. epidermidis (C)

PF-250 (SEDIFGRLANEKANGLEELRKIRLKQ; Peptide with targeting and/or antimicrobial activity)
Organism, effect (M. luteus): M. luteus (T)

PF-407 (KPKNKKEKTVISYEKLLSMY; Peptide with targeting and/or antimicrobial activity)
Organism, effect (E. faecalis): E. faecalis (R) | Organism, effect (MRSA): MRSA (C) | Organism, effect (S. epidermidis): S. epidermidis (M) | Organism, effect (S. pneumoniae): S. pneumoniae (R)

PF-624 (VFLLDSYCFVKINL; Peptide with targeting and/or antimicrobial activity)
Organism, effect (morphology, biofilm and growth disruption) (E. coli): E. coli (C) | Organism, effect (morphology, biofilm and growth disruption) (M. luteus): M. luteus (C) | Organism, effect (morphology, biofilm and growth disruption) (MRSA): MRSA (C) | Organism, effect (morphology, biofilm and growth disruption) (P. mirabilis): P. mirabilis (C) | Organism, effect (morphology, biofilm and growth disruption) (S. epidermidis): S. epidermidis (D) | Organism, effect (morphology, biofilm and growth disruption) (S. mutans): S. mutans (D) | Organism, effect (morphology, biofilm and growth disruption) (S. pneumoniae): S. pneumoniae (D)

PF-618 (KLNTLNKKDNPSLNDQDKNAVLNLLALAK; Peptide with targeting and/or antimicrobial activity)
Organism, effect (morphology, biofilm and growth disruption) (E. faecalis): E. faecalis (H) | Organism, effect (morphology, biofilm and growth disruption) (S. pneumoniae): S. pneumoniae (I)

PF-398 (ILVVLAGILLVVLSYVGISKFKMNC; Peptide with targeting and/or antimicrobial activity)
Organism, effect (E. coli): E. coli (C) | Organism, effect (E. faecalis): E. faecalis (C) | Organism, effect (MRSA): MRSA (C) | Organism, effect (S. epidermidis): S. epidermidis (C)

PF-411 (WVAVAILLNIALQTQLT; Peptide with targeting and/or antimicrobial activity)
Organism, effect (C. jejuni): C. jejuni (D) | Organism, effect (E. coli): E. coli (C) | Organism, effect (E. faecalis): E. faecalis (D) | Organism, effect (MRSA): MRSA (D) | Organism, effect (P. aeruginosa): P. aeruginosa (A) | Organism, effect (S. epidermidis): S. epidermidis (C) | Organism, effect (S. pneumoniae): S. pneumoniae (D)

PF-339 (KKIDILINKYMYLSK; Peptide with targeting and/or antimicrobial activity)
Organism, effect (B. subtilis): B. subtilis (C) | Organism, effect (S. epidermidis): S. epidermidis (C)

PF-634 (chain 1 MPKARPVNHNKKKSKITIKSNFTLFYMFNP; chain 2 MPKARPVNHNKKKSKITIKSNFTLFYMFNP; Peptide with targeting and/or antimicrobial activity)
Organism, effect (morphology, biofilm and growth disruption) (E. coli): E. coli (C) | Organism, effect (morphology, biofilm and growth disruption) (M. luteus): M. luteus (C) | Organism, effect (morphology, biofilm and growth disruption) (MRSA): MRSA (D) | Organism, effect (morphology, biofilm and growth disruption) (P. mirabilis): P. mirabilis (C) | Organism, effect (morphology, biofilm and growth disruption) (S. epidermidis): S. epidermidis (D) | Organism, effect (morphology, biofilm and growth disruption) (S. mutans): S. mutans (D) | Organism, effect (morphology, biofilm and growth disruption) (S. pneumoniae): S. pneumoniae (D)

PF-516 (ASKQASKQASKQASKQ; Peptide with targeting and/or antimicrobial activity)
Organism, effect (morphology, biofilm and growth disruption) (S. pneumoniae): S. pneumoniae (H)

PF-196 (TTARYIRRQCHTSITPLSQG; Peptide with targeting and/or antimicrobial activity)
Organism, effect (C. jeikeium): C. jeikeium (R) | Organism, effect (S. epidermidis): S. epidermidis (C)

YIQFHLNQQPRPKVKKIKIFL-NH2 [PF-531]
Organism, effect (morphology, biofilm and growth disruption) (E. coli): E. coli (M) | Organism, effect (morphology, biofilm and growth disruption) (P. aeruginosa): P. aeruginosa (I) | Organism, effect (morphology, biofilm and growth disruption) (S. epidermidis): S. epidermidis (I) | Organism, effect (morphology, biofilm and growth disruption) (S. pneumoniae): S. pneumoniae (C)

PF-610 (VFLKLKTSKIDLASIIFYP; Peptide with targeting and/or antimicrobial activity)
Organism, effect (morphology, biofilm and growth disruption) (C. jejuni): C. jejuni (D) | Organism, effect (morphology, biofilm and growth disruption) (E. coli): E. coli (C) | Organism, effect (morphology, biofilm and growth disruption) (E. faecalis): E. faecalis (D) | Organism, effect (morphology, biofilm and growth disruption) (MRSA): MRSA (D) | Organism, effect (morphology, biofilm and growth disruption) (S. epidermidis): S. epidermidis (C) | Organism, effect (morphology, biofilm and growth disruption) (S. pneumoniae): S. pneumoniae (D)

PF-303 (EYPWSWISEPWPWDKSFYK; Peptide with targeting and/or antimicrobial activity)
Organism, effect (B. subtilis): B. subtilis (C)

PF-535 (NIKTRKRALKIIKQHQRSK; Peptide with targeting and/or antimicrobial activity)
Organism, effect (morphology, biofilm and growth disruption) (P. aeruginosa): P. aeruginosa (H) | Organism, effect (morphology, biofilm and growth disruption) (S. pneumoniae): S. pneumoniae (H)

PF-145 (GIVLTGRAGLVSGACSMALGVGLG; Peptide with targeting and/or antimicrobial activity)
Organism, effect (B. subtilis): B. subtilis (C) | Organism, effect (C. jeikeium): C. jeikeium (R) | Organism, effect (C. jejuni): C. jejuni (R) | Organism, effect (M. luteus): M. luteus (A) | Organism, effect (MRSA): MRSA (M) | Organism, effect (S. epidermidis): S. epidermidis (D) | Organism, effect (S. pneumoniae): S. pneumoniae (R)

DLLKSLLGQDGAKNDEIIEFIKIIMEK [PF-591]
Organism, effect (morphology, biofilm and growth disruption) (C. jejuni): C. jejuni (C) | Organism, effect (morphology, biofilm and growth disruption) (E. faecalis): E. faecalis (A) | Organism, effect (morphology, biofilm and growth disruption) (S. pneumoniae): S. pneumoniae (R)

PF-140 (FHRRVIRASEWALTTRSFSTPLRSAAR; Peptide with targeting and/or antimicrobial activity)
Organism, effect (C. albicans): C. albicans (B) | Organism, effect (C. jeikeium): C. jeikeium (D) | Organism, effect (C. jejuni): C. jejuni (D) | Organism, effect (M. luteus): M. luteus (R) | Organism, effect (MRSA): MRSA (M) | Organism, effect (P. aeruginosa): P. aeruginosa (A) | Organism, effect (S. epidermidis): S. epidermidis (D) | Organism, effect (S. pneumoniae): S. pneumoniae (D)

PF-293 (YDPLK; Peptide with targeting and/or antimicrobial activity)
Organism, effect (S. epidermidis): S. epidermidis (C)

PF-410 (FALELIALCRNLFIVYFP; Peptide with targeting and/or antimicrobial activity)
Organism, effect (E. coli): E. coli (S) | Organism, effect (E. faecalis): E. faecalis (C) | Organism, effect (MRSA): MRSA (M) | Organism, effect (S. epidermidis): S. epidermidis (C)

PF-592 (IMKNYKYFKLFIVKYALF; Peptide with targeting and/or antimicrobial activity)
Organism, effect (morphology, biofilm and growth disruption) (C. jejuni): C. jejuni (S) | Organism, effect (morphology, biofilm and growth disruption) (E. coli): E. coli (C) | Organism, effect (morphology, biofilm and growth disruption) (E. faecalis): E. faecalis (D) | Organism, effect (morphology, biofilm and growth disruption) (MRSA): MRSA (D) | Organism, effect (morphology, biofilm and growth disruption) (S. epidermidis): S. epidermidis (M) | Organism, effect (morphology, biofilm and growth disruption) (S. pneumoniae): S. pneumoniae (D)

PF-536 (MEPIPHIMIIANQIGIIIEKA; Peptide with targeting and/or antimicrobial activity)
Organism, effect (morphology, biofilm and growth disruption) (E. coli): E. coli (R) | Organism, effect (morphology, biofilm and growth disruption) (E. faecalis): E. faecalis (C) | Organism, effect (morphology, biofilm and growth disruption) (MRSA): MRSA (C) | Organism, effect (morphology, biofilm and growth disruption) (P. aeruginosa): P. aeruginosa (H) | Organism, effect (morphology, biofilm and growth disruption) (S. epidermidis): S. epidermidis (C) | Organism, effect (morphology, biofilm and growth disruption) (S. pneumoniae): S. pneumoniae (M)

PF-157 (HTAVVWLAGVSGCVALSHCEPA; Peptide with targeting and/or antimicrobial activity)
Organism, effect (S. epidermidis): S. epidermidis (M)

PF-455 (MARNDDDIKKIKGTLGQSPEVYGERKLPYT; Peptide with targeting and/or antimicrobial activity)
Organism, effect (morphology, biofilm and growth disruption) (S. pneumoniae): S. pneumoniae (A)

PF-310 (GVALIGTILVPLLSGLFG; Peptide with targeting and/or antimicrobial activity)
Organism, effect (S. epidermidis): S. epidermidis (C)

PF-032 (RIVVPAHQSNMASTPNLSITP; Peptide with targeting and/or antimicrobial activity)
Organism, effect (C. jeikeium): C. jeikeium (C) | Organism, effect (S. epidermidis): S. epidermidis (S)

PF-347 (GIFTGVTVVVSLKHC; Peptide with targeting and/or antimicrobial activity)
Organism, effect (E. coli): E. coli (C) | Organism, effect (E. faecalis): E. faecalis (C) | Organism, effect (MRSA): MRSA (C) | Organism, effect (S. epidermidis): S. epidermidis (C)

PF-059 (TITLKAGIERALHEEVPGVIEVEQVF; Peptide with targeting and/or antimicrobial activity)
Organism, effect (C. jejuni): C. jejuni (C)

PF-067 (DLIVKVHICFVVKTASGYCYLNKREAQAAI; Peptide with targeting and/or antimicrobial activity)
Organism, effect (B. subtilis): B. subtilis (C) | Organism, effect (C. jeikeium): C. jeikeium (D) | Organism, effect (C. jejuni): C. jejuni (D) | Organism, effect (M. luteus): M. luteus (R) | Organism, effect (MRSA): MRSA (M) | Organism, effect (P. aeruginosa): P. aeruginosa (A) | Organism, effect (S. epidermidis): S. epidermidis (D) | Organism, effect (S. pneumoniae): S. pneumoniae (D)
